According to US7482318B2, “Protein kinase domain of the large subunit of herpes simplex type 2 ribonucleotide reductase (icp 10pk) has anti-apoptotic activity” (priority 2000, dated 2009):
Like-named read-outs stand apart in the source and are kept apart here.

Tests used:
HEK293 cells = experiment: TUNEL assay of apoptosis inducers in HEK293 cells; type: cell-based, human; details: 24 hours with 250 nM STS or 300 nM D-Mann, ±SEM, three experiments
Protocol: (§1) Vero (African green monkey kidney cells) were obtained from ATCC and grown in Minimum Essential Medium (MEM) with 10% fetal bovine serum (FBS) and antibiotics. HEK293 (human embryonic kidney) cells were grown in Dulbecco's Modified Eagle's Medium (DMEM) with 10% FBS, 1 mM sodium pyruvate, 0.1 mM non-essential amino acids, and antibiotics. The cell line JHLA1 was established from HEK293 cells by transfection with an ICP10 expression vector and clone selection with G418, and the cell line JHL15 was similarly constructed using a vector which expresses the transmembrane deleted mutant of ICP10, p139™, which is PK negative, as described (Smith et al. 1994, Virology, 200:598-612).
(§2) Apoptosis was induced in HEI293 and JHLA1 cells using staurosporine (STS; Calbiochem, San Diego, Calif.) and D-manritol (D-Mann; Sigma, St. Louis, Mo.). […]
(§3) In situ analysis of apoptosis was performed using In Situ Cell Death Detection Kit (Roche Molecular Biochemicals, Indianapolis, Ind.) according to the manufacturer's instructions. […] Coverslips were mounted in PBS/glycerol, and cells were analyzed by fluorescence microscopy. […] Coverslips were mounted in PBS/glycerol and analyzed by light microscopy. Apoptotic cells (characterized by a dark precipitate) and non-apoptotic cells (diffuse, light staining) were counted in at least five randomly chose microscopic fields (containing at least 250 cells). […]

JHL15 cells = experiment: TUNEL assay of apoptosis inducers in JHL15 cells (express PK negative p139TM); type: cell-based, human; details: JHL15 cells (printed RHL15 for STS); 24 hours with 250 nM STS or 300 nM D-Mann; ±SEM
Protocol: as §1, §2, §3

JHLA1 cells = experiment: TUNEL assay of apoptosis inducers in JHLA1 cells (express ICP10); type: cell-based, human; details: JHLA1 cells (printed JHLA15); 24 hours with 250 nM STS or 300 nM D-Mann; ±SEM
Protocol: as §1, §2, §3

chromosomal DNA = experiment: DNA fragmentation assay (agarose gel DNA ladder); type: cell-based, human; details: 24 hours post-treatment
Protocol: (§4) Apoptosis was induced in HEI293 and JHLA1 cells using staurosporine (STS; Calbiochem, San Diego, Calif.) and D-manritol (D-Mann; Sigma, St. Louis, Mo.). Cells were plated in 6-well plates on glass coverslips or in flasks and allowed to grow for 24 hours at 37° C. in DMEM with 10% FBS, 1 mM sodium pyruvate, 0.1 mM non-essential amino acids, and antibiotics. At 24 hours after plating, media was removed by aspiration, and appropriate dilutions of apoptotic inducers (STS 250 nM, D-Mann 300 mM) were added to the cells for various times indicated in the text. All dilutions were made in cell growth media described above containing 1% FBS. At the indicated times after treatment, cells were processed for TUNEL or harvested for DNA extraction or Western blot assay.
HEK293, JHLA1 and JHL15 cells treated or not treated with apoptotic inducers were collected by gentle scraping at 24 hours post-treatment/infection. DNA was extracted using Puregene DNA Isolation Kit (Gentra Systems, Minneapolis, Minn.) according to the manufacturer's instructions. After spectrophotometrical quantitation, 5-10 micrograms of DNA per samples was separated on a 1.5% agarose gel stained with 0.1 microgram/ml ethidium bromide. Fragmented DNA was visualized by exposure to UV light and photographed using a Polaroid MP-4 land camera.
To determine whether ICP10PK blocks DNA fragmentation induced by STS and D-Mann, treated cells were analyzed using a DNA fragmentation assay which detects degradation of chromosomal DNA into oligonucleosomal fragments.

[1] = system: primary hippocampal cultures; type: cell-based, rat
Protocol: Briefly, minced fetal hippocampi were incubated with 0.25% trypsin for 30 minutes at 36° C. followed by dissociation of neurons in MEM supplemented with 10% FBS, 10% horse serum, 2 mM glutamine, and 20 microgram/ml DNase II, using a sterile Pasteur pipette. Neurons were plated at approximately 750,000 cells per 35 mm dish on glass coverslips pre-coated with poly-L-lysine and incubated at 36° C., 10% CO2. At 24 hours, media was replaced with MEM supplemented with 10% horse serum and 2 mM glutamine, and the cultures were returned to a 36 degrees C., 10% CO2 incubator.
In situ analysis of apoptosis was performed using In Situ Cell Death Detection Kit (Roche Molecular Biochemicals, Indianapolis, Ind.) according to the manufacturer's instructions. Briefly, infected/treated or non-infected/non-treated cells were fixed with 4% paraformaldehyde (PFA) in PBS (pH=7.4) for 30 minutes at room temperature followed by permiabilization of cells in 0.1% Triton X-100 (in 0.1% sodium citrate) for 2 minutes on ice. DNA breaks were labeled by addition of terminal deoxynucleotidyl transferase (TdT) and nucleotide mixture (containing dUTP-fluorescein conjugated) and incubation for 60 minutes at 37° C. Coverslips were mounted in PBS/glycerol, and cells were analyzed by fluorescence microscopy. After extensive washes in PBS, cells were incubated for 30 minutes at 37° C. with an anti-fluorescein antibody conjugated with alkaline phosphatase (AP). Chromogenic reaction was carried out by adding AP substrate solution (NBT/BCIP in 0.1 M Tris-HCl pH=9.5, 0.05 M MCl2, 0.1M NaCl, and 1 mM levamisole) and incubation for 10 minutes at room temperature. Coverslips were mounted in PBS/glycerol and analyzed by light microscopy. Apoptotic cells (characterized by a dark precipitate) and non-apoptotic cells (diffuse, light staining) were counted in at least five randomly chose microscopic fields (containing at least 250 cells). The percentage of mock-infected neurons undergoing apoptosis (between 4 and 5%) was subtracted from each average.
Cells were infected with 10 PFU/cell of HSV-2 or ICP10deltaPK and apoptosis was determined by TUNEL at 16 and 24 hours p.i. A total of 200-300 cells were counted in five randomly chosen microscopic fields and the mean percentage of TUNEL-positive cells was determined.

PARP = experiment: Western blot of PARP cleavage; type: cell-based, human; details: STS-treated
Protocol: (§5) Cells were collected by gentle scraping and centrifuged at 2,500 rpm for 5 minutes at 4° C. The dry pellet was stored at −80° C. until use. Cells were lysed with RIPA buffer (30 mM Tris-Hcl pH=7.4, […], 1% Nonidet P-40, 0/1% SDS, 0.5% sodium deoxycholate, 1 mM EDTA, 1 mM DTT, 2 mM MgCl2, 0.5 mM PMSF) supplemented with phosphatase and protease inhibitor cocktails (Sigma, St. Louis, Mo.) and sonicated for 1 minute at 25% output power using the Sonicator/Ultrasonic Processor (Misonix, Inc., Farmingdale, N.Y.). Total protein was determined by BCA (Pierce, Rockford, Ill.) and proteins were resolved by SDS-PAGE. Transfer of separated proteins to Schlecher and Schuell nitrocellulose membranes was performed overnight using an electroblotting apparatus. Non-specific binding was blocked by incubating blots for 1 hour at 37° C. in TN-T buffer (0.01 M Tris-Hcl pH=7.4, 0.15 M NaCl, 0.05% Tween 20) containing 1% bovine serum albumin (BSA). […]
To determine whether ICP10PK blocks PARP cleavage by caspase-3, a hallmark of caspase-3 dependent apoptosis, Western blot analysis using PARP antibody was performed on STS-treated HEK293, JHL15, and JHLA1 cells. A 116 kDa band consistent with the uncleaved PARP was detected in mock- and STS-treated cells.

caspase-3p20 = experiment: Immunohistochemistry for activated caspase-3 cleavage product (caspase-3p20) in HEK293, JHL15, JHLA1 cells; type: cell-based, human; details: STS-treated, ±SEM
Description: FIG. 3B is a graph depicting inhibition of caspase activation by ICP10PK. HEK93, JHL15, and JHLA1 cells treated with STS (as described in FIG. 3A) were stained with caspase3p20 antibody (specific for the activated caspase-3 which is the large fragment of the pro-enzyme), and cells in five randomly chosen microscopic fields were counted. Results are expressed as mean percentage of positive cells±SEM (*=p<0.01 vs. HEK294; +=p<0.01 vs. JHL15 by Student test).
Previous reports have shown that STS-induced cell death is a caspase-dependent process (Jacobson et al., 1996, J. Cell. Biol., 133:1041-1051). […] To determine whether ICP10PK inhibits cleavage of pro-caspase-3, a central determinant of many apoptotic processes, Western blot analysis was performed on cell lysates obtained from STS-treated cells. […] The densitometric units were equal to 0.7 for both STS-treated HEK293 and JHL15 cells and 1.0 and 1.1 for DMSO-treated HEK293 and JHL15 cells, respectively). The levels of caspase-3p32 were similar in STS-treated and untreated JHLA1 cells (FIG. 3A, lanes 5 and 6, respectively). In this case, the densitometric units were equal to 1.2 for both treatments.

[2] = system: procaspase-3 (caspase-3p32); experiment: Western blot of inactive procaspase-3 (caspase-3p32), densitometric scanning; type: cell-based, human
Protocol: as §4
as §5, with “(BSA). After washing with TN-T buffer, the blots were incubated for 2 hours at room temperature with the appropriate antibodies diluted in TN-T buffer containing 0.1% BSA. After three washes with TN-T buffer, the blots were incubated with Protein A-Peroxidase for 1 hour at room temperature.” for “(BSA).”

P-MAPK1/2 = experiment: Immunoblot of P-MAPK1/2 (MAPK activation) in hippocampal neurons; type: cell-based, rat; details: 20 micromoles U0126
Protocol: Cells were lysed with RIPA buffer (30 mM Tris-Hcl pH=7.4, 0.15 mM NaCl, 1% Nonidet P-40, 0/1% SDS, 0.5% sodium deoxycholate, 1 mM EDTA, 1 mM DTT, 2 mM MgCl2, 0.5 mM PMSF) supplemented with phosphatase and protease inhibitor cocktails (Sigma, St. Louis, Mo.) and sonicated for 1 minute at 25% output power using the Sonicator/Ultrasonic Processor (Misonix, Inc., Farmingdale, N.Y.). Total protein was determined by BCA (Pierce, Rockford, Ill.) and proteins were resolved by SDS-PAGE. Transfer of separated proteins to Schlecher and Schuell nitrocellulose membranes was performed overnight using an electroblotting apparatus. Non-specific binding was blocked by incubating blots for 1 hour at 37° C. in TN-T buffer (0.01 M Tris-Hcl pH=7.4, 0.15 M NaCl, 0.05% Tween 20) containing 1% bovine serum albumin (BSA). After washing with TN-T buffer, the blots were incubated for 2 hours at room temperature with the appropriate antibodies diluted in TN-T buffer containing 0.1% BSA. After three washes with TN-T buffer, the blots were incubated with Protein A-Peroxidase for 1 hour at room temperature. […]
Culture of hippocampal neurons were infected with HSV-2 or ICP10deltaPK at 10 PFU/cell and analyzed for MAPK activation by immunoblotting with antibodies specific for the unphosphorylated (MAPK) and phosphorylated (activated) MAPK species (P-MAPK1/2). […]

## OC[C@@H](O)[C@@H](O)[C@H](O)[C@H](O)CO [D-Mann, D-mannitol]
HEK293 cells
  percentage of apoptotic (TUNEL-positive) cells: 79±7.4%
JHL15 cells
  percentage of apoptotic (TUNEL-positive) cells: 58±7%
JHLA1 cells
  percentage of apoptotic (TUNEL-positive) cells: 13±8%
Chromosomal DNA; HEK293 cells
  DNA fragmentation (DNA ladder pattern): exhibited a DNA ladder pattern characteristic of apoptosis
Chromosomal DNA; JHLA1 cells
  DNA fragmentation (DNA ladder pattern): did not exhibit DNA fragmentation

## O=c1cc(N2CCOCC2)oc2c(-c3ccccc3)cccc12 [LY294002]
[1]; HSV-2 infected cultures, 100 micromolar LY294002
  percentage of TUNEL-positive cells: 24.8±2.3
[1]; mock-infected cultures, 100 micromolar LY294002 (non-treated 5±3)
  percentage of TUNEL-positive cells: 72±4.5

## CN[C@@H]1C[C@H]2O[C@@](C)([C@@H]1OC)n1c3ccccc3c3c4c(c5c6ccccc6n2c5c31)C(=O)NC4 [STS, staurosporine]
HEK293 cells
  percentage of apoptotic (TUNEL-positive) cells: 71±12.4%
PARP; HEK293 cells
  85 kDa PARP cleavage product: detected
PARP; JHL15 cells
  85 kDa PARP cleavage product: detected
JHL15 cells
  percentage of apoptotic (TUNEL-positive) cells: 79±4.9%
caspase-3p20; HEK293 cells
  mean percentage of cells positive for caspase-3p20: 40.5±0.9%
caspase-3p20; JHL15 cells
  mean percentage of cells positive for caspase-3p20: 36.4±7.6%
caspase-3p20; JHLA1 cells
  mean percentage of cells positive for caspase-3p20: 9.3±0.1%
JHLA1 cells
  percentage of apoptotic (TUNEL-positive) cells: 5.8 ± 2.1%
[2]; HEK293 cells, STS 250 nM (DMSO control 1.0)
  levels of caspase-3p32: 0.7 densitometric units
[2]; JHL15 cells, STS 250 nM (DMSO control 1.1)
  levels of caspase-3p32: 0.7 densitometric units
[2]; JHLA1 cells, STS 250 nM (untreated 1.2)
  levels of caspase-3p32: 1.2 densitometric units
Chromosomal DNA; HEK293 cells
  DNA fragmentation (DNA ladder pattern): exhibited a DNA ladder pattern characteristic of apoptosis
Chromosomal DNA; JHLA1 cells
  DNA fragmentation (DNA ladder pattern): did not exhibit DNA fragmentation

## N#CC(=C(/N)Sc1ccccc1N)/C(C#N)=C(\N)Sc1ccccc1N [U0126]
[1]; HSV-2 infected cultures, 10 micromoles U0126
  percentage of TUNEL-positive (apoptotic) cells: 20±1.6%
[1]; HSV-2 infected cultures, 20 micromoles U0126
  percentage of TUNEL-positive (apoptotic) cells: 39.3±2.8%
P-MAPK1/2
  P-MAPK1/2 levels vs untreated HSV-2 infected cells: significantly lower
